{"source": "paper PMC6020753", "about": "(Chemical Science, 2016)", "biological_target": "T1, NP1 (Rhodnius prolixus, UniProt Q26239)", "T1 construct": "recombinant in E. coli BL21(DE3), reconstituted ferriheme b protein, two Cys-Cys disulfides", "T1 sequence (Q26239 24-207)": "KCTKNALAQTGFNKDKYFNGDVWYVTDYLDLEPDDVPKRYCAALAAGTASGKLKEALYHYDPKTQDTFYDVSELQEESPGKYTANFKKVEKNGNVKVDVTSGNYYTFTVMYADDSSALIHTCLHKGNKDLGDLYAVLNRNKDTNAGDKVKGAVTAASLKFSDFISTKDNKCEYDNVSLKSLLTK", "assay": "X-band EPR of nitrite complex", "assay_type": "binding", "conditions": "300 mM NaNO2, 100 mM HEPES pH 7.2, 25% glycerol, 10 K; heme iron ligand"}
{"smiles": "O=NO", "note": "[nitrite]", "values": [{"measurement": "X-band EPR of nitrite complex", "value": "NP1[NO2^–] also has a HALS signal with a similar ratio"}]}
